# Test results published in ChEMBL document CHEMBL5505953, “Facilitating the development of molecular glues: Opportunities from serendipity and rational design” (Eur J Med Chem, 2024).
# Key:
# [1] = test system: LN-229; assay: cells; details: Homo sapiens, LN-229, 144 h
# [2] = target: B-cell lymphoma 6 protein (Homo sapiens, UniProt P41182)
# [3] = target: Protein cereblon/Tyrosine-protein kinase BTK (Homo sapiens, UniProt Q06187+Q96SW2); details: ramos
# [4] = target: Estrogen receptor (Homo sapiens, UniProt P03372)
# Estrogen receptor, sequence (P03372 whole entry): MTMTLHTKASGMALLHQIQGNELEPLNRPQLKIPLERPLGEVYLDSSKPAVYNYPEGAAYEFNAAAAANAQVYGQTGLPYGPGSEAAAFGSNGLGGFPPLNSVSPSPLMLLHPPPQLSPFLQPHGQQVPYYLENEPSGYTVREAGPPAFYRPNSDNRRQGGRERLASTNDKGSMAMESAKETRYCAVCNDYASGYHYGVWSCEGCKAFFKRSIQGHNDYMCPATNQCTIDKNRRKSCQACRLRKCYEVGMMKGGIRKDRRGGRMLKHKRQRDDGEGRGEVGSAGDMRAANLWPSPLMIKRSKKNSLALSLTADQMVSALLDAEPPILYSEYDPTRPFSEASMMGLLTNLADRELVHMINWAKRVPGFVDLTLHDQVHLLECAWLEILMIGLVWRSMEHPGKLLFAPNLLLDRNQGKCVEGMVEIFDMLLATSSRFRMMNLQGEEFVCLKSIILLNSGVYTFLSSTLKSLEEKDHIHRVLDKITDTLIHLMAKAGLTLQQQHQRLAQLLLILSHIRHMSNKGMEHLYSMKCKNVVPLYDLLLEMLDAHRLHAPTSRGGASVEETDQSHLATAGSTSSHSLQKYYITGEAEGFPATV
# [5] = target: CDK12/Cyclin K (Homo sapiens, UniProt Q9NYV4)
# CDK12/Cyclin K, sequence (O75909 whole entry): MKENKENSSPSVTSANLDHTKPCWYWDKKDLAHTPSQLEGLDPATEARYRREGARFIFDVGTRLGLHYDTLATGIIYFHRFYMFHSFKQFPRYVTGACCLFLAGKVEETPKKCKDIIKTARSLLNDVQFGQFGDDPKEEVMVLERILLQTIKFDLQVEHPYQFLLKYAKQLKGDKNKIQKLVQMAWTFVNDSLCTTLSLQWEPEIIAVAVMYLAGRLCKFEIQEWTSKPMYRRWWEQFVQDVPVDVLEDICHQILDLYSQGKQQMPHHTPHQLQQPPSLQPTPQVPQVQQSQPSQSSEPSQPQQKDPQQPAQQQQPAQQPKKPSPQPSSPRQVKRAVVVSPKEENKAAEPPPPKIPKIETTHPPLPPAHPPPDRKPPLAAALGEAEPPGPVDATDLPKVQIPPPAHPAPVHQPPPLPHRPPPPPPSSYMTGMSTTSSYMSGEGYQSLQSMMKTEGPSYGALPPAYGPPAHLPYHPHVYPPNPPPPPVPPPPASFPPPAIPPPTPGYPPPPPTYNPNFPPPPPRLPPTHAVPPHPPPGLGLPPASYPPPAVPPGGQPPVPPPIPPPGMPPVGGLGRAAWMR
# CDK12/Cyclin K, sequence (Q9NYV4 whole entry): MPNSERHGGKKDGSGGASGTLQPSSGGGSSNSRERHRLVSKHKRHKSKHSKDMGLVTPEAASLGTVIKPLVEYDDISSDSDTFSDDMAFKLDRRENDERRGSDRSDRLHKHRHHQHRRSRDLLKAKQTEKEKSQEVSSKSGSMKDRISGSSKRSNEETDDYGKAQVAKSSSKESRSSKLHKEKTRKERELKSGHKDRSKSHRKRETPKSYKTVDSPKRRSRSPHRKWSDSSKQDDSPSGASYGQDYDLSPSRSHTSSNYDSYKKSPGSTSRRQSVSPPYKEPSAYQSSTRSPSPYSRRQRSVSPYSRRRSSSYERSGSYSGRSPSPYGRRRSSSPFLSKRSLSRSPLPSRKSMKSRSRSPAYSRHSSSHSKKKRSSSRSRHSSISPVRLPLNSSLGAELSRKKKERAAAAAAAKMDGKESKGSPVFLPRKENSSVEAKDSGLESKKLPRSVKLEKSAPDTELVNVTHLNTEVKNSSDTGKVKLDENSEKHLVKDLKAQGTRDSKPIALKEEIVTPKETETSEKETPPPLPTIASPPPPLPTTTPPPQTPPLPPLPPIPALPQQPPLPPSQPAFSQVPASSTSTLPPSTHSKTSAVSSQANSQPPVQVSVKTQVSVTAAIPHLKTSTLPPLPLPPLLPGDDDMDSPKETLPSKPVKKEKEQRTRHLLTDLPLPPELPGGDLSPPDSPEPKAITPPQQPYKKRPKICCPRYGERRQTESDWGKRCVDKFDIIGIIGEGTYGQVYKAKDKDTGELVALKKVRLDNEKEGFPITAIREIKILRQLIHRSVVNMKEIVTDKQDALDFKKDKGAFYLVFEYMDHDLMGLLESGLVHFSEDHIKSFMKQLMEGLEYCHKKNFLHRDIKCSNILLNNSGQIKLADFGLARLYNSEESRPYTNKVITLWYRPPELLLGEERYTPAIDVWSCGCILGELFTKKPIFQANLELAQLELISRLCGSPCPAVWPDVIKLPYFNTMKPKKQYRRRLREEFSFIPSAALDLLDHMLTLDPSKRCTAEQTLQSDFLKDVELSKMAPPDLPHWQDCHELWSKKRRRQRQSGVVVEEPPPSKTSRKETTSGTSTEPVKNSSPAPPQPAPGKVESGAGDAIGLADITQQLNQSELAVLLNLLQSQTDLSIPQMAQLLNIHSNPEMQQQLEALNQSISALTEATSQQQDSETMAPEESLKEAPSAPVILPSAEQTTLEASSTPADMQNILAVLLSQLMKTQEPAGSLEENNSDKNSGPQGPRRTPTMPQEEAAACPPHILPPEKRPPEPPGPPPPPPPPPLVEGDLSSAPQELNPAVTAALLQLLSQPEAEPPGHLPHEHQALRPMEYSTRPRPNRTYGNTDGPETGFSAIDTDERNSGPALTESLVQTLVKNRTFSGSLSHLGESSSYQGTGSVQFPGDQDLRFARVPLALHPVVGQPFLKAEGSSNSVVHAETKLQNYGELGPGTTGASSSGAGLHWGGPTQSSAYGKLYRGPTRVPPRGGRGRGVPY
# [6] = target: Protein cereblon/Zinc finger protein Helios (Homo sapiens, UniProt Q96SW2+Q9UKS7); details: hek293t
# Protein cereblon/Zinc finger protein Helios, sequence (Q96SW2 whole entry): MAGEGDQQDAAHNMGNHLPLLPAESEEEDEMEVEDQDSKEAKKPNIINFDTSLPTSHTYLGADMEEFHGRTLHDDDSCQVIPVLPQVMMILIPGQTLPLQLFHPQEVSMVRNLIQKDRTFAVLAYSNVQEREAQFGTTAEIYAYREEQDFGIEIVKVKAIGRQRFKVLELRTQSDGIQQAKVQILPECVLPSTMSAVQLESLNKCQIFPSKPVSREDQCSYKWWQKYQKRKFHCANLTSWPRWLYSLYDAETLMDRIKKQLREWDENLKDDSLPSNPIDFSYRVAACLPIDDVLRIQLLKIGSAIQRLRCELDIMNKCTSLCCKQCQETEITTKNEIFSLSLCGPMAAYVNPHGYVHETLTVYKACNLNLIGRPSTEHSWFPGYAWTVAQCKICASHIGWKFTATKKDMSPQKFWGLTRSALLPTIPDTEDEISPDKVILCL
# Protein cereblon/Zinc finger protein Helios, sequence (Q9UKS7 whole entry): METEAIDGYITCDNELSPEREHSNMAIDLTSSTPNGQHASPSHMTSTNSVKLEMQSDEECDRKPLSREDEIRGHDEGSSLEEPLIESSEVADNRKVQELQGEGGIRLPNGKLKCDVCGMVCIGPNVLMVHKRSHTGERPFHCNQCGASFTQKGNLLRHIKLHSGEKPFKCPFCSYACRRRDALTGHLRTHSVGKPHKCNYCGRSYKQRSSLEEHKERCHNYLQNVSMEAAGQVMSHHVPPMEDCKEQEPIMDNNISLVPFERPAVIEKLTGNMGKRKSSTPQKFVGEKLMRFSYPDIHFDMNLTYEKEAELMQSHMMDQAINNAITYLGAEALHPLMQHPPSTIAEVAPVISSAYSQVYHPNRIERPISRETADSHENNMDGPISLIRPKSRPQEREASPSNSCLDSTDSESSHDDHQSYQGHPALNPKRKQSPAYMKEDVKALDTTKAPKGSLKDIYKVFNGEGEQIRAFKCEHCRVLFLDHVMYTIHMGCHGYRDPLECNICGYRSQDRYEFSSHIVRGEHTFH
# [7] = target: RNA-binding protein 39 (Homo sapiens, UniProt Q14498)
# [8] = target: Cyclin-K (Homo sapiens, UniProt O75909); details: hct-116
# Cyclin-K, sequence (O75909 whole entry): as the sequence (O75909 whole entry) above
# [9] = test system: A549; assay: cells; details: Homo sapiens, A549, 72 h
# [10] = test system: HCT-116; assay: cells; details: Homo sapiens, HCT-116, 72 h
# [11] = target: Cystic fibrosis transmembrane conductance regulator (Homo sapiens, UniProt P13569)
# [12] = target: 14-3-3 protein beta/alpha (Homo sapiens, UniProt P31946)
# 14-3-3 protein beta/alpha, sequence (P31946 whole entry): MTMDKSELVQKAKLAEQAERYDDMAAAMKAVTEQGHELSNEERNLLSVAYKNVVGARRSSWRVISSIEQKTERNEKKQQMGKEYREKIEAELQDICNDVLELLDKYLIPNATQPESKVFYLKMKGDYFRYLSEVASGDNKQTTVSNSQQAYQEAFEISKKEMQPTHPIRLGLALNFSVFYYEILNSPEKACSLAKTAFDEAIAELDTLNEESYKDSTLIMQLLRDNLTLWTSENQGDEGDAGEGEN
# [13] = test system: HeLa; assay: cells; details: Homo sapiens, 48 h
# [14] = test system: A549; assay: cells; details: Homo sapiens, A549, 48 h
# [15] = test system: MCF7; assay: cells; details: Homo sapiens, MCF7, 48 h
# [16] = test system: PC-3; assay: cells; details: Homo sapiens, PC-3, 48 h
# [17] = test system: NCI-H2122; assay: cells; details: Homo sapiens, NCI-H2122, 48 h
# [18] = test system: NCI-H1563; assay: cells; details: Homo sapiens, NCI-H1563, 48 h
# [19] = test system: MDA-MB-231; assay: cells; details: Homo sapiens, MDA-MB-231, 48 h
# [20] = test system: HCC38; assay: cells; details: Homo sapiens, HCC38, 48 h
# [21] = target: Cereblon/Casein kinase I alpha (Homo sapiens, UniProt P48729+Q96SW2); details: molm-13
# [22] = target: Protein cereblon (Homo sapiens, UniProt Q96SW2)
# Protein cereblon, sequence (Q96SW2 whole entry): as the sequence (Q96SW2 whole entry) above
# Protein cereblon/Tyrosine-protein kinase BTK, sequence (Q06187 whole entry): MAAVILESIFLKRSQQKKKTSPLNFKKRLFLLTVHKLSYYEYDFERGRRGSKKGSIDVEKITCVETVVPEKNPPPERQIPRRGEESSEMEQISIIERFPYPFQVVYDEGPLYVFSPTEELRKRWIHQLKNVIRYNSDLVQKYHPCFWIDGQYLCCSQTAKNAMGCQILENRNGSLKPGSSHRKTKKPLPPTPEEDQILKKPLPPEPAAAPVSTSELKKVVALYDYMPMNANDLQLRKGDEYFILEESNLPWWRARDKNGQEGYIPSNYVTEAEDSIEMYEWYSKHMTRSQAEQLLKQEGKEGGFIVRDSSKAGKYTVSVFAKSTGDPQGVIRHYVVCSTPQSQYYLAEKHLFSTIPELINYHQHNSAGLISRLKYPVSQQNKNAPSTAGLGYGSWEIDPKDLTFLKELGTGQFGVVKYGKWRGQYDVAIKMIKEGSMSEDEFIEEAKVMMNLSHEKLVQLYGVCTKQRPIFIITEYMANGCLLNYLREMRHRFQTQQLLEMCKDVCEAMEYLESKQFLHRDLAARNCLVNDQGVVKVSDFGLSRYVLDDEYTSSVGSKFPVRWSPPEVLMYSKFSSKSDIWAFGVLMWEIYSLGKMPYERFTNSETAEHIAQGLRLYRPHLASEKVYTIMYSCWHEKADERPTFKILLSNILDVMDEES
# Protein cereblon/Tyrosine-protein kinase BTK, sequence (Q96SW2 whole entry): as the sequence (Q96SW2 whole entry) above
smiles,measurement,setting,value
N#Cc1ccc2nc(NC(=O)Nc3cccc(Cl)c3)sc2c1,IC50,[1],850 nM
O=C(Nc1ccc(Cl)c([N+](=O)[O-])c1)Nc1nc2ccccc2s1,IC50,[1],2300 nM
CNC(=O)COc1cc2cc(Nc3nc(N4C[C@H](C)C[C@H](C)C4)ncc3Cl)ccc2n(C)c1=O,IC50,[2],< 3 nM
Nc1ncnc2c1c(-c1ccc(Oc3ccccc3)cc1)nn2[C@H]1CCCN(C(=O)CCCCCCCCNc2ccc3c(c2)C(=O)N(C2CCC(=O)NC2=O)C3=O)C1 (stereo partly specified),DC50,[3],50 nM
O=C(C1=C(O)C(=O)N(c2ccccc2O)C1c1ccc([N+](=O)[O-])cc1)c1ccccc1 (stereo unspecified),IC50,[4],75000 nM
O=C(CSc1nc2ccccc2[nH]1)Nc1ccc(Cl)cn1,IC50,[5],400 nM
Cc1ccc(C(=O)N2CSCC2C(=O)/N=c2/[nH]cc(C)s2)o1 (stereo unspecified),IC50,[5],400 nM
O=C1CCC(N2Cc3cc(C4CCNCC4)ccc3C2=O)C(=O)N1 (stereo unspecified),DC50,[6],> 50000 nM
O=C(CSc1nnc2c(n1)[nH]c1ccccc12)Nc1ccc(Cl)cn1,IC50,[5],400 nM
Cc1ccc(S(=O)(=O)N/N=C/c2cc(Br)ccc2O)cc1,IC50,[7],400 nM
Cc1cccc(Nc2nc(CC(=O)Nc3ncc(C)s3)cs2)n1,DC50,[8],132 nM
same,IC50,[9],1300 nM
same,IC50,[10],1300 nM
N=C(N)NCCC[C@@H]1NCc2ccccc2Sc2ccccc2CNC(=O)[C@H](Cc2ccc(O)cc2)NC(=O)[C@H](CCCN)NC1=O,IC50,[11],36100 nM
O=C(COc1ccccc1P(=O)(O)O)NCCc1ccccc1,IC50,[12],5200 nM
CCN(CC)c1ccc(C2=NNC(=O)CC2C)cc1[N+](=O)[O-] (stereo unspecified),EC50,[13],10 nM
same,EC50,[14],10 nM
same,EC50,[15],10 nM
same,EC50,[16],10 nM
same,EC50,[17],10 nM
same,EC50,[18],10 nM
O=C(/C=C/C=C/C=C/C1CCCCC1)NC1=C[C@@](O)(/C=C/C=C/C=C/C(=O)NC2=C(O)CCC2=O)[C@@H]2O[C@@H]2C1=O,EC50,[19],13800 nM
same,EC50,[20],4500 nM
O=C1CCC(N2Cc3c(CNC(=O)c4ccc(F)cc4)cccc3C2=O)C(=O)N1 (stereo unspecified),DC50,[21],11 nM
NS(=O)(=O)c1ccc(S(=O)(=O)Nc2cccc3c(Cl)c[nH]c23)cc1,IC50,[22],360 nM
O=C1CCC(N2Cc3cc(C4CCN(Cc5ccccc5)CC4)ccc3C2=O)C(=O)N1 (stereo unspecified),DC50,[6],4000 nM
